Measurements: patent publication US6670145B2, “Method for detection of total coliforms and E. coli” (The United States of America as represented by the …, priority 1991, dated 2003)
Where a name gives a salt, the structure may show the parent alone.

Tests used:
total coliform colonies = test: Other β-galactosidase substrates tested with IBDG in the selective base medium; format: cell-based, total coliforms; conditions: β-galactosidase substrate tested with IBDG in selective base medium
From the text: (§1) The selective base medium without the substrates MUGal and IBDG (with or without agar) can be used with other β-galactosidase and β-glucuronidase substrates for the detection of total coliforms and/or E. coli. For example, each of three other β-galactosidase substrates (2-Nitrophenyl-β-D-galactopyranoside, Chlorophenol Red-β-galactopyranoside, and Resorufin-β-D-Galactopyranoside) have been tested with IBDG in this lab. […] We believe other combinations of substrates in this base medium would also work in the various embodiments described in this document, and different enzyme substrates (other than β-galactosidase and β-glucuronidase substrates) for specific coliforms could be used in this base medium because of its selectivity. The following guidance is provided for choosing ingredients for the alternative embodiments.

[1] = tested on: Escherichia coli (EPA 206); test: Confirmatory spot test with enzyme substrates; format: cell-based; set-up: key to Reactions in Wells Containing: MUGal (fluorescence): +: A positive reaction is shown by fluorescence of the well under long wave ultraviolet light; key to Reactions in Wells Containing: IBDG (blue color): +: A positive reaction is shown by production of a blue color in the well; conditions: 35° C., up to 24 hours
Protocol: (§2) One hundred microliter volumes of a bacterial suspension were placed in three wells of a sterile porcelain spot test plate or other suitable plate with wells. The bacterial suspension was obtained in one of the following ways:
(§3) 1. A loopful of bacterial growth from a slant or an isolated colony from an agar plate was emulsified in a small amount of the liquid MI broth medium without substrates or other non-selective broths.
(§4) 2. Aliquots of 100 μl of a bacterial culture grown over-night at 35° C. in a non-selective broth or the liquid medium without substrates were used.
(§5) Sixty microliters of a freshly-prepared, filter-sterilized 16 mg/ml IBDG solution was added to one well of bacterial suspension, and 300 μl of a freshly-prepared, filter-sterilized 1 mg/ml MUGal solution was added to a second well. The third well, containing only bacterial suspension (negative control), was used as a comparator to distinguish positive and negative wells. Additional wells were inoculated with uninoculated medium, IBDG, and MUGal as controls. The plates were covered with sterile foil and incubated at 35° C. for up to 24 hours. […] This test could also be performed by adding all of the test liquids and culture or sample to a piece of filter paper or to an absorbent pad and observing the reactions.

[2] = tested on: Escherichia coli (ATCC 25922); test: Confirmatory spot test with enzyme substrates; format: cell-based; set-up: key to Reactions in Wells Containing: MUGal (fluorescence): +: A positive reaction is shown by fluorescence of the well under long wave ultraviolet light; key to Reactions in Wells Containing: IBDG (blue color): +: A positive reaction is shown by production of a blue color in the well; conditions: 35° C., up to 24 hours
Protocol: as §2, §3, §4, §5

E. coli colonies = test: Other β-galactosidase substrates tested with IBDG in the selective base medium; format: cell-based; conditions: IBDG with each of three other β-galactosidase substrates in selective base medium
From the text: as §1

[3] = tested on: Klebsiella pneumoniae (EPA 207); test: Confirmatory spot test with enzyme substrates; format: cell-based; set-up: key: +: A positive reaction is shown by fluorescence of the well under long wave ultraviolet light; conditions: 35° C., up to 24 hours, UV 366 nm
Protocol: as §2, §3, §4, §5

[4] = tested on: Enterobacter aerogenes (EPA 202); test: Confirmatory spot test with enzyme substrates; format: cell-based; set-up: key: +: A positive reaction is shown by fluorescence of the well under long wave ultraviolet light; conditions: 35° C., up to 24 hours, UV 366 nm
Protocol: as §2, §3, §4, §5

O=[N+]([O-])c1ccccc1O[C@@H]1O[C@H](CO)[C@H](O)[C@H](O)[C@H]1O [2-Nitrophenyl-β-D-galactopyranoside]
colors of the total coliform colonies (total coliform colonies): yellow

O=S1(=O)OC(c2ccc(O)c(Cl)c2)(c2ccc(O[C@@H]3O[C@H](CO)[C@H](O)[C@H](O)[C@H]3O)c(Cl)c2)c2ccccc21 (stereo partly drawn) [Chlorophenol Red-β-galactopyranoside]
colors of the total coliform colonies (total coliform colonies): orchid

O=C(O)[C@H]1O[C@@H](Oc2c[nH]c3ccccc23)[C@H](O)[C@@H](O)[C@@H]1O [IBDG, Indoxyl-Beta-D-glucuronide, sodium salt or cyclohexylammonium salt]
Reactions in Wells Containing: IBDG (blue color) [1]: + | Reactions in Wells Containing: IBDG (blue color) [2]: + | color of the E. coli colonies (E. coli colonies): varying shades of blue

Cc1cc(=O)oc2cc(O[C@@H]3O[C@H](CO)[C@H](O)[C@H](O)[C@H]3O)ccc12 [MUGal, 4-Methylumbelliferyl-Beta-D-galactopyranoside]
Reactions in Wells Containing: MUGal (fluorescence) [3]: + | Reactions in Wells Containing: MUGal (fluorescence) [4]: + | Reactions in Wells Containing: MUGal (fluorescence) ([1]; UV 366 nm): + | Reactions in Wells Containing: MUGal (fluorescence) ([2]; UV 366 nm): +

O=c1ccc2nc3ccc(O[C@@H]4O[C@H](CO)[C@H](O)[C@H](O)[C@H]4O)cc3oc-2c1 [Resorufin-β-D-Galactopyranoside]
colors of the total coliform colonies (total coliform colonies): pink-red
